# Measured values taken from patent US12605452B2, “Compounds that degrade kinases and uses thereof” (Regents of the University of Minnesota, priority 2019, dated 2026).
# Key:
# Aurora-A [1] = molecular target: T1, Aurora-A (Homo sapiens, UniProt O14965); experiment: in vitro kinase binding, Aurora-A
# T1 sequence (O14965 1-403): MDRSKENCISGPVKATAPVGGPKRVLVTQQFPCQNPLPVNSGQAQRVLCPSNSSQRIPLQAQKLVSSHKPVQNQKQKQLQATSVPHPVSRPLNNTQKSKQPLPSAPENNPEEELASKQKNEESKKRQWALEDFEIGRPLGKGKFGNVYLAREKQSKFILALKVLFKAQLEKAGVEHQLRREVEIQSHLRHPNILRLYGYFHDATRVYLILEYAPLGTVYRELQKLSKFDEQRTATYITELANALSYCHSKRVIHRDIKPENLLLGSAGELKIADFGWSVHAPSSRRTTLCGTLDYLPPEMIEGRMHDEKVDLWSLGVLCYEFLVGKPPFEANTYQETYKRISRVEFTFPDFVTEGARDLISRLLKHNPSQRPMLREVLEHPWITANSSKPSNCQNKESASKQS
# CDK4-CyclinD1 = CDK4-CyclinD1 (Homo sapiens, UniProt P11802); experiment: in vitro kinase binding, CDK4-CyclinD1
# [2] = test system: IMR-32 and SK-N-BE(2) cells; experiment: Alamar blue cellular viability assay, MYCN amplified neuroblastoma cells; assay type: cell-based; settings: 3 days
# Description: (§1) MCF-7 cells were cultured in complete Dulbecco's modified Eagle medium (DMEM) supplemented with 10% (vol/vol) heat-inactivated fetal bovine serum (FBS), 100 U/ml penicillin and 100 μg/ml streptomycin. HCC38 cells were cultured in RPMI medium with 10% FBS, 100 U/ml penicillin and 100 μg/ml streptomycin. Huh7 cells were cultured in DMEM medium with 10% FBS, 100 U/ml penicillin and 100 μg/ml streptomycin supplemented with 1% MEM non-essential amino acids (SIGMA M7145). IMR-32 and SK-N-BE(2) cells were cultured in Eagle's Minimum Essential Medium (EMEM) with 10% FBS, 100 U/ml penicillin and 100 μg/ml streptomycin. All the cell lines were maintained in a humidified incubator at 37° C. and 5% CO2.
# (§2) Cancer cells were seeded in media (50 μL) 24 h prior to treatment with compounds in 96-well plates. For MCF-7 and Huh7 cells, the seeding density is 2,500 cells/well; for HCC38, the density is 2,000 cells/well; and for IMR-32 and SK-N-BE(s), the density is 5,000 cells/well. Compounds were serially diluted in pre-warmed media and dosed to cells (final volume=100 μL; final DMSO concentration=0.5%). […] After 2 hours treatment period, the fluorescence of each well was read using a BioTek Synergy H1 plate reader. […]
# CDK4 = molecular target: T2, CDK4 (Homo sapiens, UniProt P11802); experiment: immunoblotting, degradation of CDK4 in MCF-7 cells; assay type: cell-based
# T2 construct: endogenous in cells; host or cells: MCF-7
# Description: as §1
# (§3) Cells were treated with 13 and other compounds at indicated concentrations and incubation time. Cells were gently rinsed once with ice-cold PBS and then lysed in radioimmnuoprecipitation assay (RIPA) lysis buffer (50 mM Tris-HCl pH 7.4, 150 mM NaCl, 1% NP-40, 0.5% sodium deoxycholate, 0.1% SDS, 5 mM EDTA, 1 mM EGTA) supplemented with 1% protease inhibitor cocktail (Roche cOmplete) and 1% phosphatase inhibitor cocktail (PhosSTOP). Cell lysates were incubated on ice for 15 mins and then kept at −80° C. before further use. The lysates were thawed on ice and the supernatants were collected after centrifugation (@11,000 rpm) for 15 min at 4° C. The protein concentration was determined using the Pierce BCA protein Assay kit and normalized before the samples were reduced in […] sample buffer and denatured at 95° C. in a heated block for 10 mins. An equal amount of protein samples (10-30 μg per lane) were resolved using 4-20% Tris-glycine gels and transferred onto PVDF blotting membranes. Primary antibodies CDK4 (DCS-35, 1:2000), N-Myc (B8.4.B, 1:5000), p21 (F-5, 1:500), p53 (DO-1, 1:1000), Aurora-A (1G4, 1:1000), β-actin (A1978, 1:2000) were used for immunoblotting. The images were detected using Li-Cor Odyssey Fc imaging system and the immunoblots were quantified by densitometry using ImageJ software.
# Aurora-A and N-Myc = molecular target: T3, Aurora-A and N-Myc (Homo sapiens, UniProt O14965); experiment: immunoblotting, dose-dependent degradation of Aurora-A and N-Myc in SK-N-BE(2) cells; assay type: cell-based; settings: for degradation of Aurora-A and N-Myc (in words): 24 hours, dose series
# T3 construct: endogenous in cells; host or cells: SK-N-BE(2)
# T3 sequence (O14965 1-403): T1 sequence (O14965 1-403)
# Description: as §1, §3
# Aurora-A [3] = molecular target: T1, Aurora-A; experiment: immunoblotting, degradation of Aurora-A in MCF-7 cells; assay type: cell-based; design: endogenous in cells; host or cells: MCF-7
# Description: as §1, §3
# N-Myc = experiment: immunoblotting, N-Myc depletion in MYCN amplified neuroblastoma cell lines; assay type: cell-based; settings: IMR-32 and SK-N-BE(2) cells, 0.5 μM, after 24 hours
# Description: as §1
# (§4) Cells were treated with 13 and other compounds at indicated concentrations and incubation time. […] The protein concentration was determined using the Pierce BCA protein Assay kit and normalized before the samples were reduced in […] sample buffer and denatured at 95° C. in a heated block for 10 mins. […] The images were detected using Li-Cor Odyssey Fc imaging system and the immunoblots were quantified by densitometry using ImageJ software.
# [4] = test system: MCF-7, HCC38, Huh7, IMR-32 and SK-N-BE(2) cells; experiment: Alamar blue cellular viability assay, all tested cell lines; assay type: cell-based; settings: range over all tested cell lines; read-out: IC50, cytotoxicity
# Description: as §1, §2
# p53 and p21 = experiment: immunoblotting, abundance of downstream signaling proteins in MCF-7 cells; assay type: cell-based; settings: 4 hours and 24 hours
# Description: as §1, §4
# [5] = test system: MCF-7 breast cancer cells; experiment: cell cycle analysis using propidium iodide DNA staining; assay type: cell-based; settings: compound treatment for 48 hours
# HCC38 = experiment: Alamar blue cellular viability assay, HCC38; assay type: cell-based; settings: HCC38, ribociclib-resistant, 5 days
# Description: as §1, §2
# Huh7 = experiment: Alamar blue cellular viability assay, Huh7; assay type: cell-based; settings: Huh7, ribociclib-resistant, 5 days
# Description: as §1, §2
# MCF-7 cells = experiment: Alamar blue cellular viability assay, MCF-7; assay type: cell-based
# Description: as §1, §2
# cyclin D1 = experiment: immunoblotting, degradation of cyclin D1 in MCF-7 cells; assay type: cell-based
# Description: as §1, §4
# [6] = test system: Cyclin D and CDK4 complexes; experiment: Western blot, degradation of Cyclin D and CDK4 complexes in MCF-7 cells; assay type: cell-based; settings: MCF-7 breast cancer cells
# T2 sequence (P11802 whole entry): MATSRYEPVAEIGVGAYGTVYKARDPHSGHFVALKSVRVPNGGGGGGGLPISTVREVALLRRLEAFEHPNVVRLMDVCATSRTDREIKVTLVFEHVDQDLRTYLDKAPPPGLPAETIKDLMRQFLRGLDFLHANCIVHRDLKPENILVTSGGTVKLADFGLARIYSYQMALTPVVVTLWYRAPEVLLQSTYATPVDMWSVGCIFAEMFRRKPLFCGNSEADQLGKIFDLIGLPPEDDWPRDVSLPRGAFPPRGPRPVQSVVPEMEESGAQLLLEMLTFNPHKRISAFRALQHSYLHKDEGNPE
# Sequence of CDK4-CyclinD1 (P11802 whole entry): as above
# Sequence of CDK4-CyclinD1 (P24385 whole entry partner): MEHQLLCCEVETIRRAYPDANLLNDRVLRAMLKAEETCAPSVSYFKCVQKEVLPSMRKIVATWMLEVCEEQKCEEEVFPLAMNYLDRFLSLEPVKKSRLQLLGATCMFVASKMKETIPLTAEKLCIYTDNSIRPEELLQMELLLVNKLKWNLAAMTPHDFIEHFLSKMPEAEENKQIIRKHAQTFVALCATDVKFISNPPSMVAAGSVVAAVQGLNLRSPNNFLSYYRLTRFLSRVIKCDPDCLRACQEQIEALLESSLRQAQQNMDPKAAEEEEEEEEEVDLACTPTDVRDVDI
structure (smiles),measurement,setting,value
"CNC(=O)c1ccc(Nc2ncc3cc(C(=O)N(C)C)n(C4CCCC4)c3n2)cc1 [Compound 11, 7-cyclopentyl-N,N-dimethyl-2-((4-(methylcarbamoyl)phenyl)amino)-7H-pyrrolo[2,3-d]pyrimidine-6-carboxamide]",Kd,Aurora-A [1],0.85 nM
same,Kd,CDK4-CyclinD1,3 nM
"CNC(=O)c1ccc(Nc2ncc3cc(C(=O)N(C)C)n(C4CCCC4)c3n2)nc1 [Compound 12, 7-cyclopentyl-N,N-dimethyl-2-((5-(methylcarbamoyl)pyridin-2-yl)amino)-7H-pyrrolo[2,3-d]pyrimidine-6-carboxamide]",binding affinity with Aurora-A (in words),Aurora-A [1],significant decrease of binding affinity with Aurora-A
"CN(C)C(=O)c1cc2cnc(Nc3ccc(C(=O)NCCCCCCOc4cccc5c4C(=O)N(C4CCC(=O)NC4=O)C5=O)cc3)nc2n1C1CCCC1 (stereo not drawn) [Compound 13, 7-cyclopentyl-2-((4-((6-((2-(2,6-dioxopiperidin-3-yl)-1,3-dioxoisoindolin-4-yl)oxy)hexyl)carbamoyl)phenyl)amino)-N,N-dimethyl-7H-pyrrolo[2,3-d]pyrimidine-6-carboxamide]",cytotoxic potency compared to CD532,[2],more potent than CD532
same,degradation of CDK4 (in words),CDK4,no obvious degradation of CDK4 was observed
same,potency for depleting N-Myc protein compared to MLN8237 and CD532,Aurora-A and N-Myc,more potent
same,degradation of Aurora-A and N-Myc (in words),Aurora-A and N-Myc,induced the degradation of Aurora-A and N-Myc in a dose-dependent manner
same,degradation of Aurora-A (in words),Aurora-A [3],rapidly and potently induce the degradation of Aurora-A
same,half-life of Aurora-A,Aurora-A [3]; 100 nM compound,1.9 h
same,degradation potency for Aurora-A at high concentration (hook effect),Aurora-A [3]; 2 μM,lower degradation potency
same,DC50,"Aurora-A [3]; 4 hours, read-out: DC50 (half-maximal degradation concentration) for Aurora-A",20 nM
same,Dmax,"Aurora-A [3]; MCF7, after 4 hours, read-out: Dmax (maximum degradation efficacy) for Aurora-A",~94%
same,binding affinity with Aurora-A (in words),Aurora-A [1],maintains its binding affinity to Aurora-A
same,depletion of N-Myc,N-Myc,almost complete depletion of N-Myc
same,IC50,[4],18 to 135 nM
same,effect on p21 abundance,p53 and p21,increased the abundance
same,effect on p53,p53 and p21,significantly stabilized p53
same,cell cycle effect,[5],potent G2/M phase arrest
"CN(C)C(=O)c1cc2cnc(Nc3ccc(C(=O)NCCCCCCOc4cccc5c4C(=O)N(C4CCC(=O)NC4=O)C5=O)cn3)nc2n1C1CCCC1 (stereo not drawn) [Compound 14, 7-cyclopentyl-2-((5-((6-((2-(2,6-dioxopiperidin-3-yl)-1,3-dioxoisoindolin-4-yl)oxy)hexyl)carbamo-yl)pyridin-2-yl)amino)-N,N-dimethyl-7H-pyrrolo[2,3-d]pyrimidine-6-carboxamide]",Kd,Aurora-A [1],380 nM
"CN(C)C(=O)c1cc2cnc(Nc3ccc(C(=O)NCCCCCCOc4cccc5c4C(=O)N(C4CCC(=O)N(C)C4=O)C5=O)cc3)nc2n1C1CCCC1 (stereo not drawn) [Compound 15, 7-cyclopentyl-N,N-dimethyl-2-((4-((6-((2-(1-methyl-2,6-dioxopiperidin-3-yl)-1,3-dioxoisoindolin-4-yl)oxy)hexyl)carbamoyl)phenyl)amino)-7H-pyrrolo[2,3-d]pyrimidine-6-carboxamide]",potency shift from 13 (cytotoxicity),HCC38,8.2 fold
same,degradation of Aurora-A and N-Myc (in words),Aurora-A and N-Myc,did not affect the protein abundance even at the highest test concentration
same,binding affinity with Aurora-A (in words),Aurora-A [1],maintains similar binding profile as the active form 13
same,potency shift from 13 (cytotoxicity),Huh7,20.8 fold
same,potency shift from 13 (cytotoxicity),"MCF-7 cells; MCF-7 cells, 5 days","4,4 fold"
"CC(=O)c1c(C)c2cnc(Nc3ccc(C(=O)NCCCCCCOc4cccc5c4C(=O)N(C4CCC(=O)NC4=O)C5=O)cc3)nc2n(C2CCCC2)c1=O (stereo not drawn) [Compound 16, 4-((6-acetyl-8-cyclopentyl-5-methyl-7-oxo-7,8-dihydropyrido[2,3-d]pyrimidin-2-yl)amino)-N-(6-((2-(2,6-dioxopiperidin-3-yl)-1,3-dioxoisoindolin-4-yl)oxy)hexyl)benzamide]",degradation of CDK4 (in words),CDK4,weakly active
same,degradation of Aurora-A (in words),Aurora-A [3],weakly active
same,binding affinity with Aurora-A (in words),Aurora-A [1],weak binding
same,binding to CDK4 (in words),CDK4-CyclinD1,weak binding
"Cc1nc2c(F)cc(-c3nc(Nc4ccc(C(=O)NCCCCCCOc5cccc6c5C(=O)N(C5CCC(=O)NC5=O)C6=O)cc4)ncc3F)cc2n1C(C)C (stereo not drawn) [Compound 17, N-(6-((2-(2,6-dioxopiperidin-3-yl)-1,3-dioxoisoindolin-4-yl)oxy)hexyl)-4-((5-fluoro-4-(4-fluoro-1-isopropyl-2-methyl-1H-benzo[d]imidazol-6-yl)pyrimidin-2-yl)amino)benzamide]",degradation of cyclin D1 (in words),cyclin D1,strong potency
same,degradation of CDK4 (in words),CDK4,strong potency
same,degradation of Aurora-A (in words),Aurora-A [3],strong potency
same,binding affinity with Aurora-A (in words),Aurora-A [1],weak binding affinity
same,Kd,CDK4-CyclinD1,23 nM
"Cc1nc2c(F)cc(-c3nc(Nc4ccc(NC(=O)CCCCCCOc5cccc6c5C(=O)N(C5CCC(=O)NC5=O)C6=O)cc4)ncc3F)cc2n1C(C)C (stereo not drawn) [Compound 18, 7-((2-(2,6-dioxopiperidin-3-yl)-1,3-dioxoisoindolin-4-yl)oxy)-N-(4-((5-fluoro-4-(4-fluoro-1-isopropyl-2-methyl-1H-benzo[d]imidazol-6-yl)pyrimidin-2-yl)amino)phenyl)heptanamide]",cytotoxicity in MCF-7 cells (in words),MCF-7 cells; palbociclib- and abemaciclib-analogue-based degraders,the most potent compound
"CN(C)C(=O)c1cc2cnc(Nc3ccc(C(=O)NCCCCCCNc4cccc5c4C(=O)N(C4CCC(=O)NC4=O)C5=O)cc3)nc2n1C1CCCC1 (stereo not drawn) [Compound 22, 7-cyclopentyl-2-((4-((6-((2-(2,6-dioxopiperidin-3-yl)-1,3-dioxoisoindolin-4-yl)amino)hexyl)carbamoyl)-phenyl)amino)-N,N-dimethyl-7H-pyrrolo[2,3-d]pyrimidine-6-carboxamide]",degradation of Cyclin D and CDK4 complexes,[6],degrades Cyclin D and CDK4 complexes in a dose-dependent and time-dependent manner
"CN(C)C(=O)c1cc2cnc(Nc3ccc(N4CCNCC4)cn3)nc2n1C1CCCC1 [ribociclib, reference compound]",cell cycle effect,[5],induces G0/G1 arrest
